# Assay results published in US20070149485A1, “SELECTED DOSAGE FOR THE TREATMENT OF CARDIOVASCULAR AND RELATED PATHOLOGIES” (Medicure International, Inc., priority 2005, published 2007).
# Legend:
# [1] = tested on: adenosine triphosphate (ATP) induced calcium ion influx into cells; conditions: a recent evaluation; suggested antagonism of P2 purinoceptors; cited from earlier work
# [2] = tested on: high-risk patients undergoing CABG surgery with cardiopulmonary bypass; experiment: Cognitive function after CABG surgery, Mini Mental State Exam (MMSE), MEND-CABG trial; assay type: in vivo, human; conditions: for MMSE at POD 30, Mean / MMSE at POD 90, Mean: score 0-30
# Method: The ability of P5P to protect against cognitive decline following CABG surgery was evaluated through the administration of a battery of validated psychometric tests pre-operatively, 4 days after surgery, 30 days after surgery, and 90 days after surgery.
# A randomized, double-blind placebo-controlled, dose-ranging, parallel-arm multi-center study was undertaken, on high-risk patients undergoing CABG surgery with cardiopulmonary bypass.
# Patients were identified as “high risk” if they had two or more of the following risk factors: • Age greater than 65 years; • Diabetes mellitus; • History of congestive heart failure; • History of a previous non-disabling stroke, transient ischemic attack, or carotid endarterectomy; • Prior CABG surgery; • Urgent CABG intervention defined as the need to stay in the hospital (although the patient may be operated on within a normal scheduling routine); • History of myocardial infarction that occurred more than 48 hours but less than 6 weeks prior to CABG surgery; and • Presence of at least one asymptomatic carotid artery stenosis (>50%) either in one or two carotid arteries.
# Approximately 900 high risk pre-CABG patients in 42 different treatment centers in North America were screened and randomized to three groups of approximately 300 patients each, prior to their bypass surgery, as follows. Patients were either placed in a control group (placebo), treated with 250 mg/day of P5P, (250 mg/day), or treated with 750 mg/day of P5P (750 mg/day). The first dose of study medication was administered at 3-10 hours prior to CABG surgery. In the event of surgery delay or rescheduling, a second pre-operative dose of P5P was administered so that all patients received study medication 3-10 hours before surgery. Treatment continued for 30 days after surgery (post operative day (POD) 30). Patients received follow-up evaluations up to and including postoperative day (POD) 4, on POD 30 and on POD 90.
# Patients were measured to assess change in cognitive function by the effects of P5P on neurological events following CABG surgery by methods of Mini Mental State Exam and psychometric testing (grooved pegboard).
# MMSE is a well validated test to screen cognitive function (Folstein, J Psychiatr Res. 1975 Nov.;12(3):189-98). It measures orientation, registration (immediate memory), short-term (but not long-term) memory, and language functioning. The test is scored from 0-30, with scores of 25-30 considered normal, scores of 18-24 indicative of mild cognitive impairment, and scores under 17 indicative of severe impairment (Crum, JAMA. 1993 May 12;269(18):2386-91). This test is appropriate to indicate the presence of cognitive impairment.
# The MMSE was administered to all 900 patients at screening, post-operative day (POD) 30, and POD 90. The MMSE score at POD 90 was analyzed using an analysis of covariance (ANOCO) model, adjusting for the MMSE score at screening. […] The results with P5P treatment (either 250 or 750 mg/day) were tabulated in Table 7, according to screening MMSE score.
structure (smiles),measurement,setting,value
"Cc1ncc(COP(=O)(O)O)c(C=O)c1O [P5P, 3-hydroxy-2-methyl-5-[(phosphonooxy)methyl]-4-pyridine-carboxaldehyde]",adenosine triphosphate (ATP) induced calcium ion influx into cells,[1],inhibits
same,"MMSE at POD 90, Adjusted Mean","[2]; 250 mg/day, MMSE screening = 25, ANOCO p 0.0067 vs placebo",27.74
same,"MMSE at POD 90, Adjusted Mean","[2]; 250 mg/day, MMSE screening = 26, ANOCO p 0.0074 vs placebo",28.08
same,"MMSE at POD 90, Adjusted Mean","[2]; 250 mg/day, MMSE screening = 27, ANOCO p 0.0116 vs placebo",28.42
same,"MMSE at POD 90, Adjusted Mean","[2]; 250 mg/day, MMSE screening = 28, ANOCO p 0.0579 vs placebo",28.76
same,"MMSE at POD 90, Adjusted Mean","[2]; 250 mg/day, MMSE screening = 29, ANOCO p 0.7654 vs placebo",29.10
same,"MMSE at POD 90, Adjusted Mean","[2]; 250 mg/day, MMSE screening = 30, ANOCO p 0.2726 vs placebo",29.44
same,"MMSE at POD 30, Mean",[2]; 250 mg/day,28.57
same,"MMSE at POD 90, Mean",[2]; 250 mg/day,28.97
same,"MMSE at POD 90, Adjusted Mean","[2]; 750 mg/day, MMSE screening = 25, ANOCO p 0.0664 vs placebo",27.41
same,"MMSE at POD 90, Adjusted Mean","[2]; 750 mg/day, MMSE screening = 26, ANOCO p 0.0701 vs placebo",27.83
same,"MMSE at POD 90, Adjusted Mean","[2]; 750 mg/day, MMSE screening = 27, ANOCO p 0.0875 vs placebo",28.25
same,"MMSE at POD 90, Adjusted Mean","[2]; 750 mg/day, MMSE screening = 28, ANOCO p 0.1926 vs placebo",28.67
same,"MMSE at POD 90, Adjusted Mean","[2]; 750 mg/day, MMSE screening = 29, ANOCO p 0.8350 vs placebo",29.08
same,"MMSE at POD 90, Adjusted Mean","[2]; 750 mg/day, MMSE screening = 30, ANOCO p 0.4317 vs placebo",29.50
same,"MMSE at POD 30, Mean",[2]; 750 mg/day,28.79
same,"MMSE at POD 90, Mean",[2]; 750 mg/day,28.99
same,protection against the decline in overall neurocognitive function associated with CABG surgery,"[2]; MEND-CABG trial, 250 or 750 mg/day",provided protection
same,"Improvements in MMSE score, 250 mg/day dose group compared with 750 mg/day dose group",[2]; in particular in patients with lower MMSE scores at screening,more significant
